{
  "source": "patent US20060263302A1",
  "about": "“Systemic oxygenation via gastric perfusion with perfluorocarbon (PFC)” (Thomas Jefferson University, priority 2005, published 2006)",
  "key": {"Sus scrofa pigs": {"tested_on": "Sus scrofa pigs", "test": "Peritoneal perfusion with perfluorocarbon in pigs made hypoxic by ventilation with subatmospheric oxygen; arterial blood gases", "format": "in vivo", "conditions": "for Fitted mean PaO2 / Observed mean PaO2: pigs, peritoneal perfusion; for Fitted treatment effect: mean PaO2 difference perfluorocarbon versus saline / Observed treatment effect: mean PaO2 difference perfluorocarbon versus saline: oxygenation on", "procedure": "Animals: Fifteen Sus scrofa pigs weighing 45-55 kg were used for the experiments. All experiments were approved by the Thomas Jefferson University Institutional Animal Care and Use Committee. The care and handling of all animals were in accord with United States Department of Agriculture guidelines.\nSurgical procedure: The animals were induced with Telazol (Fort Dodge Animal Health, Fort Dodge, Iowa) 5 mg/kg injected intramuscularly (IM), after which an intravenous catheter was placed in an ear vein and 30 mg of Propofol (Baxter, Irvine, Calif.) was injected intravenously (IV). The animals were then intubated with a 7.5 mm internal diameter endotracheal tube (Mallinckrodt Inc., St. Louis, Mo.) and maintained with isoflurane inhalation anesthesia, using intermittent Propofol injections for any evidence of discomfort or awakening. The animals were placed on a Harvard Apparatus Dual Phase Control Respirator Pump (South Natick, Mass.) mechanical ventilator with a tidal volume of 10-15 ml/kg and a rate of 12-15 breaths per minute. Prior to subjecting the animal to hypoxia, the respiratory rate was occasionally adjusted in an effort to maintain a neutral pH, as determined by arterial blood gas measurements. Electrocardiography leads were placed in the standard 3-lead positions on each animal, starting at the time of induction, and continuously monitored throughout the experiment. Oxygen saturation was also measured with a Vet/Ox Plus 4700 (SDI, Waukesha, Wis.) pulse oxymeter with the probe placed on the animal's tongue. Once under general anesthesia and in the supine position, a cervical cut down was performed through which a Swan-Ganz right heart catheter (Edwards Lifesciences, Irvine, Calif.) was placed via the internal jugular vein and an 18-gauge angiocatheter was placed in the common carotid artery for access to the central arterial system for blood pressure monitoring and arterial blood gas measurements. Both of these lines were transduced using a pressure monitoring kit with a TruWave pressure transducer (Edwards Lifesciences, Irvine, Calif.) and connected to a Hewlett-Packard Monitor 78834A (Palo Alto, Calif.) system for monitoring the systemic and pulmonary arterial pressures and the central venous pressure.\nAfter placement of the arterial and venous lines, a lower midline laparotomy was performed. A 28 French venous return cannula catheter (Edwards Lifesciences, Irvine, Calif.) was placed in the left paracolic gutter and brought out through a separate site in the left lower quadrant and sutured in place using a number 1 Prolene suture (Ethicon, Sommerville, N.J.). A 42 French venous return cannula (Edwards Lifesciences, Irvine, Calif.) was placed in an identical manner on the right side, with the tip lodged above the dome of the liver. The abdomen was then closed in a single layer with a running number I Prolene. In the first two animals in each experimental group, an additional 14 French catheter (Edwards Lifesciences, Irvine, Calif.) was placed near the midline for pressure monitoring purposes and was maintained in a vertical attitude, attached to a ruler such that the height of the column of fluid could be easily monitored. Peritoneal pressure measurements in centimeters of H2O were calculated by multiplying column height by the correction factor 1.67 (specific gravity of trans-bis-perfluorobutyl ethylene).\nHypoxia circuit: A Matrx anesthesia machine (Orchard Park, N.Y.) was used for blending gasses and isoflurane inhaled anesthetic. Pure nitrogen, rather than filtered room air, was mixed with pure oxygen to achieve subatmospheric concentrations of oxygen. The animal was ventilated using a standard bifurcated anesthesia circuit to maintain unidirectional flow of gasses. A Datex machine (Puritan-Bennett Corporation, Overland Park, Kans.) was attached to the ventilation circuit and allowed real-time monitoring of the oxygen and anesthetic agent concentration. […]"}, "[1]": {"test": "Properties of perfluorocarbon (physical characteristics of neat F44E)", "format": "physicochemical", "text": "Perfluorocarbon: Seventy liters of neat perfluorocarbon F44E (trans-bis-perfluorobutyl ethylene) were provided as a generous gift from Neuron Therapeutics, Inc (Malvern, Pa.). This perfluorocarbon is clear, colorless, odorless, immiscible with water or blood and has the physical characteristics listed in Table 1."}},
  "note": "Several values for one entry are separate records, joined by “and”; a condition that tells them apart may be missing. Equal entries are not always repeated.",
  "data": [
    {"smiles": "FC(F)(F)C(F)(F)C(F)(F)C(F)(F)/C=C/C(F)(F)C(F)(F)C(F)(F)C(F)(F)F", "note": "[perfluorocarbon, trans-bis-perfluorobutyl ethylene]", "values": [
      {"measurement": "Fitted mean PaO2", "setting": "Sus scrofa pigs; FiO2 10%, O2 Off", "value": 25.7, "unit": "mm Hg"},
      {"measurement": "Observed mean PaO2", "setting": "Sus scrofa pigs; FiO2 10%, O2 Off", "value": 28.0, "unit": "mm Hg"},
      {"measurement": "Fitted mean PaO2", "setting": "Sus scrofa pigs; FiO2 10%, O2 On", "value": 35.2, "unit": "mm Hg"},
      {"measurement": "Observed mean PaO2", "setting": "Sus scrofa pigs; FiO2 10%, O2 On", "value": 36.7, "unit": "mm Hg"},
      {"measurement": "Observed mean PaO2", "setting": "Sus scrofa pigs; FiO2 10%, O2 On, listed as oxygenated perfluorocarbon", "value": "36.7±8.4", "unit": "mm Hg"},
      {"measurement": "Fitted mean PaO2", "setting": "Sus scrofa pigs; FiO2 12%, O2 Off", "value": 38.5, "unit": "mm Hg"},
      {"measurement": "Observed mean PaO2", "setting": "Sus scrofa pigs; FiO2 12%, O2 Off", "value": 37.1, "unit": "mm Hg"},
      {"measurement": "Fitted mean PaO2", "setting": "Sus scrofa pigs; FiO2 12%, O2 On", "value": 44.5, "unit": "mm Hg"},
      {"measurement": "Observed mean PaO2", "setting": "Sus scrofa pigs; FiO2 12%, O2 On", "value": 43.8, "unit": "mm Hg"},
      {"measurement": "Fitted mean PaO2", "setting": "Sus scrofa pigs; FiO2 14%, O2 Off", "value": 51.3, "unit": "mm Hg"},
      {"measurement": "Observed mean PaO2", "setting": "Sus scrofa pigs; FiO2 14%, O2 Off", "value": 48.8, "unit": "mm Hg"},
      {"measurement": "Fitted mean PaO2", "setting": "Sus scrofa pigs; FiO2 14%, O2 On", "value": 53.9, "unit": "mm Hg"},
      {"measurement": "Observed mean PaO2", "setting": "Sus scrofa pigs; FiO2 14%, O2 On", "value": 55.3, "unit": "mm Hg"},
      {"measurement": "Observed mean PaO2", "setting": "Sus scrofa pigs; FiO2 14%, O2 On, listed as oxygenated perfluorocarbon", "value": "55.3±7.6 mm Hg and 55.3 mm Hg"},
      {"measurement": "arterial oxygen saturation (SaO2)", "setting": "Sus scrofa pigs; FiO2 14%, oxygenated perfluorocarbon perfusion (73% with oxygenated saline)", "value": 89, "unit": "%"},
      {"measurement": "Fitted mean PaO2", "setting": "Sus scrofa pigs; FiO2 16%, O2 Off", "value": 64.2, "unit": "mm Hg"},
      {"measurement": "Observed mean PaO2", "setting": "Sus scrofa pigs; FiO2 16%, O2 Off", "value": 63.7, "unit": "mm Hg"},
      {"measurement": "Fitted mean PaO2", "setting": "Sus scrofa pigs; FiO2 16%, O2 On", "value": 63.3, "unit": "mm Hg"},
      {"measurement": "Observed mean PaO2", "setting": "Sus scrofa pigs; FiO2 16%, O2 On", "value": 64.4, "unit": "mm Hg"},
      {"measurement": "Fitted mean PaO2", "setting": "Sus scrofa pigs; FiO2 18%, O2 Off", "value": 77.0, "unit": "mm Hg"},
      {"measurement": "Observed mean PaO2", "setting": "Sus scrofa pigs; FiO2 18%, O2 Off", "value": 79.8, "unit": "mm Hg"},
      {"measurement": "Fitted mean PaO2", "setting": "Sus scrofa pigs; FiO2 18%, O2 On", "value": 72.7, "unit": "mm Hg"},
      {"measurement": "Observed mean PaO2", "setting": "Sus scrofa pigs; FiO2 18%, O2 On", "value": 68.7, "unit": "mm Hg"},
      {"measurement": "Observed mean PaO2", "setting": "Sus scrofa pigs; FiO2 18%, O2 On, listed as oxygenated perfluorocarbon", "value": "68.7±10.4", "unit": "mm Hg"},
      {"measurement": "group-by-oxygenation interaction effect", "setting": "Sus scrofa pigs; average across FiO2 values", "value": "about 6.4 mmHg"},
      {"measurement": "average mean PaO2 difference perfluorocarbon versus saline", "setting": "Sus scrofa pigs; oxygenation off, across all FiO2 values", "value": 6.4, "unit": "mmHg"},
      {"measurement": "Fitted treatment effect: mean PaO2 difference perfluorocarbon versus saline", "setting": "Sus scrofa pigs; FiO2 10%", "value": 9.6, "unit": "mmHg"},
      {"measurement": "Observed treatment effect: mean PaO2 difference perfluorocarbon versus saline", "setting": "Sus scrofa pigs; FiO2 10%", "value": 8.1, "unit": "mmHg"},
      {"measurement": "Fitted treatment effect: mean PaO2 difference perfluorocarbon versus saline", "setting": "Sus scrofa pigs; FiO2 12%", "value": 11.4, "unit": "mmHg"},
      {"measurement": "Observed treatment effect: mean PaO2 difference perfluorocarbon versus saline", "setting": "Sus scrofa pigs; FiO2 12%", "value": 12.4, "unit": "mmHg"},
      {"measurement": "Fitted treatment effect: mean PaO2 difference perfluorocarbon versus saline", "setting": "Sus scrofa pigs; FiO2 14%", "value": 13.2, "unit": "mmHg"},
      {"measurement": "Observed treatment effect: mean PaO2 difference perfluorocarbon versus saline", "setting": "Sus scrofa pigs; FiO2 14%", "value": 15.9, "unit": "mmHg"},
      {"measurement": "Fitted treatment effect: mean PaO2 difference perfluorocarbon versus saline", "setting": "Sus scrofa pigs; FiO2 16%", "value": 15.0, "unit": "mmHg"},
      {"measurement": "Observed treatment effect: mean PaO2 difference perfluorocarbon versus saline", "setting": "Sus scrofa pigs; FiO2 16%", "value": 18.2, "unit": "mmHg"},
      {"measurement": "Fitted treatment effect: mean PaO2 difference perfluorocarbon versus saline", "setting": "Sus scrofa pigs; FiO2 18%", "value": 16.8, "unit": "mmHg"},
      {"measurement": "Observed treatment effect: mean PaO2 difference perfluorocarbon versus saline", "setting": "Sus scrofa pigs; FiO2 18%", "value": 8.2, "unit": "mmHg"},
      {"measurement": "arterial or venous partial pressure of carbon dioxide (PaCO2 or PvCO2), difference between groups", "setting": "Sus scrofa pigs; perfluorocarbon versus saline, irrespective of FiO2", "value": "No statistically significant difference"},
      {"measurement": "specific gravity (correction factor for peritoneal pressure)", "setting": "[1]", "value": 1.67},
      {"measurement": "Carbon dioxide capacity", "setting": "[1]; neat perfluorocarbon F44E", "value": 200, "unit": "vol %"},
      {"measurement": "Oxygen capacity", "setting": "[1]; neat perfluorocarbon F44E", "value": 50, "unit": "vol %"},
      {"measurement": "Specific gravity", "setting": "[1]; neat perfluorocarbon F44E", "value": 1.668, "unit": "g/cc"}
    ]}
  ]
}
